Data reported in ChEMBL document CHEMBL4346710, “Discovery of 7H-pyrrolo[2,3-d]pyrimidine derivatives as selective covalent irreversible inhibitors of interleukin-2-inducible T-cell kinase (Itk)” (Eur J Med Chem, 2019).
Active and inactive are the calls of the source. The rule behind the calls is not given here.

Legend:
[1] = target: T1, Tyrosine-protein kinase Lck (Homo sapiens, UniProt P06239); assay: Inhibition of recombinant full length human C-terminal His-tagged LCK cytoplasmic domain expressed in baculovirus expression system using fluorophore-labeled tyrosine-2 peptide as substrate incubated for 60 mins by Z'-LYTE assay
[2] = target: T2, Tyrosine-protein kinase Blk (Homo sapiens, UniProt P51451); assay: Inhibition of recombinant full-length human His-tagged BLK cytoplasmic domain expressed in baculovirus expression system assessed as enzyme residual activity at 0.4 uM using fluorophore-labeled tyrosine-1 peptide as substrate incubated for 60 mins by Z'-LYTE assay relative to control
CCRF-CEM = assay: Growth inhibition of human CCRF-CEM cells incubated for 72 hrs by CellTiter-Glo luminescent cell viability assay; assay type: functional
[3] = target: T3, Tyrosine-protein kinase BTK (Homo sapiens, UniProt Q06187); assay: Inhibition of recombinant human full-length N-terminal His6-tagged BTK expressed in baculovirus infected Sf21 insect cells using STK substrate by HTRF assay
T3 sequence (Q06187 whole entry, canonical isoform): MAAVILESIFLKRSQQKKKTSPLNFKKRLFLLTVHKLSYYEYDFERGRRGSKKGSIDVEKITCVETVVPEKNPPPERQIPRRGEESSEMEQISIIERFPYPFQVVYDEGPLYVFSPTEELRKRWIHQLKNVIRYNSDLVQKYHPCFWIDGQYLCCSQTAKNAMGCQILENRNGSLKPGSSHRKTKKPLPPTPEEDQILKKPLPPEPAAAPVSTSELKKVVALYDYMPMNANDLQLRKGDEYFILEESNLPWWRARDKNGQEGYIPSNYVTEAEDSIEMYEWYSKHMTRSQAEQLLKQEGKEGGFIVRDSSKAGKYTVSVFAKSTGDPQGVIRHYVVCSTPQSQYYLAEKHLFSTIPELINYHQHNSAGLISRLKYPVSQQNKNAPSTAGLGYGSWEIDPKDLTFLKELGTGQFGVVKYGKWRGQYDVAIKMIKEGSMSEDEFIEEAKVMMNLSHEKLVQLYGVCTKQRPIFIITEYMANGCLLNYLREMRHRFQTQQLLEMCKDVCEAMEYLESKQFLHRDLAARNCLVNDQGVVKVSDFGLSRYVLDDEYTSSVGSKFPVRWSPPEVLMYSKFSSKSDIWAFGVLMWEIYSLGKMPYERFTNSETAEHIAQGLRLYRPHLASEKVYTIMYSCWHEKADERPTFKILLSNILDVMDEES

[4] = target: Casein kinase I isoform alpha (Homo sapiens) (UniProt P48729); assay: (§1) Inhibition of recombinant full length human GST-tagged CSNK1A1 expressed in baculovirus expression system assessed as enzyme residual activity at 0.4 uM using fluorophore-labeled serine/threonine-11 peptide as substrate incubated for 60 mins by Z'-LYTE assay relative to control
[5] = target: Mitogen-activated protein kinase 14 (Homo sapiens) (UniProt Q16539); assay: Inhibition of recombinant full length human GST-tagged MAPK14 expressed in Escherichia coli assessed as enzyme residual activity at 0.4 uM using fluorophore-labeled serine/threonine-04 peptide as substrate incubated for 60 mins by Z'-LYTE assay relative to control
Mitogen-activated protein kinase 14 (Homo sapiens), sequence (Q16539 whole entry): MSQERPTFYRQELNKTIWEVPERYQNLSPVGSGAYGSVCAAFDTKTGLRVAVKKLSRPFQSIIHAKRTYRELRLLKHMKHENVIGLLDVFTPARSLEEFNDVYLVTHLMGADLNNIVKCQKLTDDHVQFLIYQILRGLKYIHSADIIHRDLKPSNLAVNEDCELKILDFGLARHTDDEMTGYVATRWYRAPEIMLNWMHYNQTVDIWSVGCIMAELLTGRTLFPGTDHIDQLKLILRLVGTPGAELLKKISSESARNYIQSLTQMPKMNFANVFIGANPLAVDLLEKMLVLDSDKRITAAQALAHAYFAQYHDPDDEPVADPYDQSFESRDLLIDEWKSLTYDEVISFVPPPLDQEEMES

[6] = target: Mitogen-activated protein kinase 8 (Homo sapiens) (UniProt P45983); assay: Inhibition of tracer 236 binding to recombinant full length human His-tagged MAPK8 expressed in baculovirus expression system assessed as enzyme residual activity at 0.4 uM incubated for 60 mins by Lanthascreen assay relative to control
[7] = target: T1, Tyrosine-protein kinase Lck; assay: Inhibition of recombinant full length human C-terminal His-tagged LCK cytoplasmic domain expressed in baculovirus expression system assessed as enzyme residual activity at 0.4 uM using fluorophore-labeled tyrosine-2 peptide as substrate incubated for 60 mins by Z'-LYTE assay relative to control
Target sequence in this assay (P06239 2-509 limits assumed): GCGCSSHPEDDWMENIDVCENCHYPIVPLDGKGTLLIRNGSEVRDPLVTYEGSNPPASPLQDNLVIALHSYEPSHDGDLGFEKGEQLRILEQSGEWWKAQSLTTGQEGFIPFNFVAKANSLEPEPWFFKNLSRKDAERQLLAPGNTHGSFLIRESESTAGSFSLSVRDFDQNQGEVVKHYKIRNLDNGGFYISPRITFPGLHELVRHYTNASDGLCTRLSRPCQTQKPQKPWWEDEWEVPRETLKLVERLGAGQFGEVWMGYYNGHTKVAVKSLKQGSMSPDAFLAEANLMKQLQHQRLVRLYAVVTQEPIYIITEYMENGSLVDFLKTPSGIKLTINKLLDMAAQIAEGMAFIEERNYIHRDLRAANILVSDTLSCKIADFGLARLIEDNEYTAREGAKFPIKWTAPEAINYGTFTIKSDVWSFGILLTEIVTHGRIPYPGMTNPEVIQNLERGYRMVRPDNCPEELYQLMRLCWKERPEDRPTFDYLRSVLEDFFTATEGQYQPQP

[8] = target: T2, Tyrosine-protein kinase Blk; assay: Inhibition of recombinant full-length human His-tagged BLK cytoplasmic domain expressed in baculovirus expression system using fluorophore-labeled tyrosine-1 peptide as substrate incubated for 60 mins by Z'-LYTE assay
HEK-293T = assay: Growth inhibition of HEK293T cells incubated for 72 hrs by CellTiter-Glo luminescent cell viability assay; assay type: functional; conditions: Homo sapiens
Jurkat [9] = assay: Growth inhibition of human Jurkat cells incubated for 72 hrs by CellTiter-Glo luminescent cell viability assay; assay type: functional
[10] = target: T3, Tyrosine-protein kinase BTK; assay: Inhibition of recombinant full length human His-tagged BTK cytoplasmic domain expressed in baculovirus expression system assessed as enzyme residual activity at 0.4 uM using fluorophore-labeled tyrosine-1 peptide as substrate incubated for 60 mins by Z'-LYTE assay relative to control
[11] = target: Protein kinase C theta type (Homo sapiens) (UniProt Q04759); assay: Inhibition of recombinant full length human His-tagged PRKCQ expressed in baculovirus expression system assessed as enzyme residual activity at 0.4 uM using fluorophore-labeled serine/threonine-7 peptide as substrate incubated for 60 mins by Z'-LYTE assay relative to control
Protein kinase C theta type (Homo sapiens), sequence (Q04759 whole entry, looked up): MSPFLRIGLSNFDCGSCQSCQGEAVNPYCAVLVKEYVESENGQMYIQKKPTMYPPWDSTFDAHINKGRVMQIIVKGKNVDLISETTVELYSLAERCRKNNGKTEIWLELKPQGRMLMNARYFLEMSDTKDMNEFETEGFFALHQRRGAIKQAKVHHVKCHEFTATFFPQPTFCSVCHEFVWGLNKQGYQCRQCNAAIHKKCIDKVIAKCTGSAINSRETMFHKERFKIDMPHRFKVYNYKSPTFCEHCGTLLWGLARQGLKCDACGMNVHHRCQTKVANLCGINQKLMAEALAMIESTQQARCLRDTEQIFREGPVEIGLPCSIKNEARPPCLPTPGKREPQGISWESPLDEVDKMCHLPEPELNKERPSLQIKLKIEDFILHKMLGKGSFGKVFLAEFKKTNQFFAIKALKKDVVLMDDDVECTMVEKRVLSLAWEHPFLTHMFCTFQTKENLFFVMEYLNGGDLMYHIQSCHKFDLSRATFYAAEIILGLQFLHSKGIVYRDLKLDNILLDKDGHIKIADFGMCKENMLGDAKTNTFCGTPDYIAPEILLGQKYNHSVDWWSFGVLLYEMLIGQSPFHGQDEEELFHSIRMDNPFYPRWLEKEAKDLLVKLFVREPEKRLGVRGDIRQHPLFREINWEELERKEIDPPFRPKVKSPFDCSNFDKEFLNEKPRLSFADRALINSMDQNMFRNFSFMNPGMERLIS

H9 = assay: Growth inhibition of human H9 cells incubated for 72 hrs by CellTiter-Glo luminescent cell viability assay; assay type: functional; conditions: H9, 72 h
TAK1/TAB1 (Homo sapiens) = TAK1/TAB1 (Homo sapiens) (UniProt Q15750+O43318); assay: Inhibition of tracer 222 binding to recombinant full-length human His-tagged MAP3K7/MAP3K7IP1 (437 to 504 residues) expressed in baculovirus expression system assessed as enzyme residual activity at 0.4 uM incubated for 60 mins by Lanthascreen assay relative to control
MOLT-4 [12] = assay: Induction of apoptosis in human MOLT4 cells assessed as upregulation of cleaved PARP at 1 to 20 uM incubated for 24 hrs by Western blot analysis; assay type: functional, cell-based
[13] = target: Serine/threonine-protein kinase Nek1 (Homo sapiens) (UniProt Q96PY6); assay: as §1, with “recombinant” for “recombinant full length”, “NEK1 catalytic domain (1 to 505 amino acids)” for “CSNK1A1”, “serine/threonine-07” for “serine/threonine-11”
[14] = target: T4, Tyrosine-protein kinase ITK/TSK (Homo sapiens, UniProt Q08881); assay: Inhibition of recombinant human N-terminal His6-tagged ITK (352 to 617 residues) expressed in baculovirus infected Sf21 insect cells using STK substrate by HTRF assay
T4 sequence (Q08881 whole entry): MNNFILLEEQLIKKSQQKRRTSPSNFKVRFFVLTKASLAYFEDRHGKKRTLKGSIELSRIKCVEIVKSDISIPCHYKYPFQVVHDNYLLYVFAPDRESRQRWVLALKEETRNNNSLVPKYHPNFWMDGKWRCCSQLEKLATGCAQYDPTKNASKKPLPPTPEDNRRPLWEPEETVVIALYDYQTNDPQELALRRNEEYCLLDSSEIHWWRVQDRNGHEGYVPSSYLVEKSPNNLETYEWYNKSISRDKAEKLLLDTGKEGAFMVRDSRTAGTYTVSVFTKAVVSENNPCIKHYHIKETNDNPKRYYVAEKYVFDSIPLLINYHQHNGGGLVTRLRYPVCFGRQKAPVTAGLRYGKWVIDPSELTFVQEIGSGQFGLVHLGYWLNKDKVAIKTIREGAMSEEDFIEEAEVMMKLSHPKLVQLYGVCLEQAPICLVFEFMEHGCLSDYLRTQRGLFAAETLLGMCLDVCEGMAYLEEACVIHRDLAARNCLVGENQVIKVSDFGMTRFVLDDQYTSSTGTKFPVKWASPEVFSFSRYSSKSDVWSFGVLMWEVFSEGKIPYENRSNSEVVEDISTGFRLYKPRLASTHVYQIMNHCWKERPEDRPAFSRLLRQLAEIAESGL

[15] = target: Tyrosine-protein kinase JAK3 (Homo sapiens) (UniProt P52333); assay: (§2) Inhibition of recombinant human GST-tagged JAK3 catalytic domain (781 to 1124 residues) expressed in baculovirus expression system assessed as enzyme residual activity at 0.4 uM using fluorophore-labeled tyrosine-6 peptide as substrate incubated for 60 mins by Z'-LYTE assay relative to control
Tyrosine-protein kinase JAK3 (Homo sapiens), sequence (P52333 whole entry, the tested form may be a part): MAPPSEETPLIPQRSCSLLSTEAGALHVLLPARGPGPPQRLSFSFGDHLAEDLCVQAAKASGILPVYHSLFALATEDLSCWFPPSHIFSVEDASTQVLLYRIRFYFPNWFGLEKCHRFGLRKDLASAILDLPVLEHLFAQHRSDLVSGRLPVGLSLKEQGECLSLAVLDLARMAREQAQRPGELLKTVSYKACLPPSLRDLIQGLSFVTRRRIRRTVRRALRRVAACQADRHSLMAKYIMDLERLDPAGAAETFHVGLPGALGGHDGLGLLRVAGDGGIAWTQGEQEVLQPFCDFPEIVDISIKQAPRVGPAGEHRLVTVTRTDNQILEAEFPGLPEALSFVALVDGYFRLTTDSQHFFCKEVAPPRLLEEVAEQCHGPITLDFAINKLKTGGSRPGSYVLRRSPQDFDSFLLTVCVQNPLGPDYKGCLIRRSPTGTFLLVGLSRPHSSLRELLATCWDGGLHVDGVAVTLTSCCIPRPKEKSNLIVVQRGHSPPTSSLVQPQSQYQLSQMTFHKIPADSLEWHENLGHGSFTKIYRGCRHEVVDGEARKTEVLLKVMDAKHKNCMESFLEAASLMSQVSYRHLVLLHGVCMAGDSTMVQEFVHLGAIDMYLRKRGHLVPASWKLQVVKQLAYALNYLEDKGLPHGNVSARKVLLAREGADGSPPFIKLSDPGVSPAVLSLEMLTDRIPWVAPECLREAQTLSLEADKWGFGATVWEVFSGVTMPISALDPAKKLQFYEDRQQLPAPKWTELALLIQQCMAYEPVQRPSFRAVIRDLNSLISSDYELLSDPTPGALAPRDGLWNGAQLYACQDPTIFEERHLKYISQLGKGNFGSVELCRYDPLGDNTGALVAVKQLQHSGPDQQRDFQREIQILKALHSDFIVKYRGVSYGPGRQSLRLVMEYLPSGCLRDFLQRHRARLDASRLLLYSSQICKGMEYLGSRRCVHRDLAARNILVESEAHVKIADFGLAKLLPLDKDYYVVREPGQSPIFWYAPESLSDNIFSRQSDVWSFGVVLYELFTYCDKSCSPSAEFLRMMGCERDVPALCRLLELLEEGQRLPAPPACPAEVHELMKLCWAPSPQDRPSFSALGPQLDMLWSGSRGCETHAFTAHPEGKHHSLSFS

MOLT-4 [16] = assay: Induction of apoptosis in human MOLT4 cells assessed as downregulation of caspase3 at 1 to 20 uM incubated for 24 hrs by Western blot analysis; assay type: functional, cell-based
[17] = target: Rho-associated protein kinase 2 (Homo sapiens) (UniProt O75116); assay: as §2, with “human N-terminal” for “human”, “ROCK2” for “JAK3”, “(1” for “(781”, “552” for “1124”, “serine/threonine-13” for “tyrosine-6”
Rho-associated protein kinase 2 (Homo sapiens), sequence (O75116 whole entry, looked up): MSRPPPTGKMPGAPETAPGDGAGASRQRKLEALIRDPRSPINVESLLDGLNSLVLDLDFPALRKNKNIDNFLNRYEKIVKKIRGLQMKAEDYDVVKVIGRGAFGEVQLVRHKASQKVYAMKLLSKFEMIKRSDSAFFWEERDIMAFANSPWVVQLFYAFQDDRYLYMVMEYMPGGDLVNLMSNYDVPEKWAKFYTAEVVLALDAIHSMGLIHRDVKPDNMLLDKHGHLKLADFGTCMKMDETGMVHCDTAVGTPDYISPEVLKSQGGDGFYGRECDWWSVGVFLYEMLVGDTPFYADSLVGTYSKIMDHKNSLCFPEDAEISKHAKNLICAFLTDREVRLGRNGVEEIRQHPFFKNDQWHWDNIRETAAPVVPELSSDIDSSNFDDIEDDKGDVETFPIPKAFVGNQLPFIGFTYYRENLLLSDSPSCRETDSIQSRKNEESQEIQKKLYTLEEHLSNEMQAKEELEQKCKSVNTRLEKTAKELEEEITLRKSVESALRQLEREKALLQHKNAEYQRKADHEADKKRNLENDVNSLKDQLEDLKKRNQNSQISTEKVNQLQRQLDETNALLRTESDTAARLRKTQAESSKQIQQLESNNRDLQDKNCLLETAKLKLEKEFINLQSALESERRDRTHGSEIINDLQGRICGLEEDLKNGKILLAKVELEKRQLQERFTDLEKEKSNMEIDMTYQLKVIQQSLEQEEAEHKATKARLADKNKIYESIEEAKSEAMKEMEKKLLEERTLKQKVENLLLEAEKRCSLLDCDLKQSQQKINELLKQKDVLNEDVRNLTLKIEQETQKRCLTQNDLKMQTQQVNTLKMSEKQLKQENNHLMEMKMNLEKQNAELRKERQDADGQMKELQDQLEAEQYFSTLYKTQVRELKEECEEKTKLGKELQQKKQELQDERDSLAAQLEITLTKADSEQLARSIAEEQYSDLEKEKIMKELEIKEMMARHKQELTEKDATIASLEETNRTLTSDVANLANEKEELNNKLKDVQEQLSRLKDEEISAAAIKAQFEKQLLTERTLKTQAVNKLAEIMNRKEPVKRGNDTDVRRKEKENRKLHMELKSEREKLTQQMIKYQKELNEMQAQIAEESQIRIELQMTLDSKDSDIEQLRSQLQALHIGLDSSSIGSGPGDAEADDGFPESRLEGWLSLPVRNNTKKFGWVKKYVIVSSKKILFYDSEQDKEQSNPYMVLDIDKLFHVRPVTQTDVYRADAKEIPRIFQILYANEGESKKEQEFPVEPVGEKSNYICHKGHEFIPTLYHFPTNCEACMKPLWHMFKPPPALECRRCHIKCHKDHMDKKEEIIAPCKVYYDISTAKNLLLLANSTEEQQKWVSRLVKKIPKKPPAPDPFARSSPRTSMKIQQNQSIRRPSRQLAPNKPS

Jurkat [18] = assay: Induction of apoptosis in human Jurkat cells assessed as upregulation of cleaved PARP at 1 to 20 uM incubated for 24 hrs by Western blot analysis; assay type: functional, cell-based

- IC50 [1]: 74 nM
- Activity [2]: 9%
- GI50 (CCRF-CEM): 127 nM
- IC50 [3]: 996 nM
- Activity [4]: 92.7%
- Activity [5]: 95%
- Activity [6]: 25%
- Activity [7]: 9%
- IC50 [8]: 198 nM
- GI50 (Jurkat [9]): 184 nM
- Activity [10]: 41.3%
- Activity [11]: 89%
- Activity (TAK1/TAB1 (Homo sapiens)): 0%
- Activity [13]: 89%
- IC50 [14]: 3.7 nM
- Ki [14]: 6.3 nM
- Activity [15]: 16.3%
- Activity [17]: 96.3%
SMILES: C=CC(=O)N1CCC(Oc2nc(Nc3ccc(N4CCOCC4)cc3)nc3[nH]cc(-c4cncc(NC)n4)c23)CC1
- GI50 (HEK-293T): 544 nM
- GI50 (H9): 232 nM
- Activity (MOLT-4 [12]): Active
- Activity (MOLT-4 [16]): Active
- Activity (Jurkat [18]): Active
